4 compounds from patent US11713302B2, “Sulfonamide benzamide derivative and preparation method and application thereof” (WEIFANG MEDICAL UNIVERSITY, priority 2021, dated 2023) can be followed below.

Read-outs that look alike come from different tables or passages of the source.

Series [1] can be described thus: Cytotoxicity assay (CCK-8) in HepAD38 cells. As to conditions: human. It counts as cell-based. Here is the method: (§1) HBV stably transfected hepatocellular carcinoma cell line, HepAD38, was able to secrete HBV viral particles (containing HBsAg, HBeAg and DNA) when the cells were cultured. The amount of HBsAg and HBeAg secreted by the cells and the DNA produced varied under the intervention of anti-HBV target compounds, so the antiviral activity of the sample drug could be calculated by measuring the amount of HBsAg and HBeAg secreted by the cells into the culture supernatant and the HBV DNA produced, with reference to the amount in the unspiked control. Using entecavir as a positive control drug, the concentration of the drug at 50% inhibition of HBV DNA was measured by quantitative PCR at the value of IC50; the concentration of the sample drug causing 50% cell death was measured by CCK-8 at the value of CC50, and the “selectivity index” of the compound to be tested was calculated. SI=CC50/IC50. (1) Cytotoxicity assay
(§2) Each sample was prepared with HepAD38 cell culture medium at a diluted concentration (1 μM) for preliminary activity screening, and a blank control was set up and a positive control drug was added to the 96-well cell culture plate with 3 replicate wells per concentration, and the same concentration was changed every 2 days and a drug-free cell control group was set up for 10 days. Cell viability was measured by CCK-8 assay to determine the toxicity of the drug to HepAD38 cells. Five dilutions (10 μM, 2 μM, 0.4 μM, 0.08 μM and […]) were prepared in HepAD38 cell culture medium for compounds with low toxicity, and a blank control and entecavir and lead compound 5a were used as positive control drugs. Cell culture plates were added to 96-well plates with 3 replicate wells per concentration, and the same concentration was changed every 2 days and a drug-free cell control group was set up for 10 days. Cell viability was measured by CCK-8 assay to determine the toxicity of the drug on HepAD38 cells.

A further series concerns HepAD38 cells. Description: Cytotoxicity assay (CCK-8) in HepAD38 cells. Format: cell-based. As to conditions: CCK-8, 10 days. The procedure: as §1, §2
In the next series the test system is HBV DNA. Description: HBV DNA activity inhibition assay (quantitative PCR) in HepAD38 cells. It counts as cell-based, hepatitis B virus (HBV). The procedure: as §1
(2) HBV DNA Activity Inhibition Assay (Quantitative PCR Method)
HepAD38 cells were cultured in 96-well cell culture plate for 24 hours, then 10 μM, 2 μM, 0.4 μM, 0.08 μM and […] drug-containing medium was added and the cells were incubated for 10 days (changed every 2 days), the supernatant was collected and the supernatant HBV DNA content was measured by quantitative PCR.

[2] abbreviates: Hepatitis B virus, 240 h, supernatant HBV DNA, HepAD38 cells, quantitative PCR, 10 days, read-out: EC50.
The mark [3] stands for this setting: Hepatitis B virus, 240 h, supernatant HBV DNA, HepAD38 cells, quantitative PCR, 10 days, read-out: IC90.
[4] abbreviates: Hepatitis B virus, HePAD38, 240 h.

The compound `O=C(Nc1ccc(F)c(Cl)c1)c1cc(S(=O)(=O)NC2CCCC2)cc2c1OCCO2` [Compound 5b] displayed a CC50 at 10 days in series [1] (CCK-8) of more than 10000 nM. The compound further returned a half-maximal cytotoxic concentration (CC50) with HepAD38 cells of more than 10000 nM. Further, the 50% effective concentration (EC50) in the series on HBV DNA (setting [2]) came to 2.52 nM. Further, the IC90 in the series on HBV DNA (setting [3]) stood at 293 nM. Further, the “inhibition of HBV DNA replication activity (initial screening)” value (“inhibition” below) with HBV DNA (quantitative PCR) was “good HBV DNA replication inhibitory activity”.

In the case of `O=C(Nc1ccc(F)c(Cl)c1)c1cc(S(=O)(=O)NC2CCCCC2)cc2c1OCCO2` [Compound 5c], the CC50 at 10 days in series [1] (CCK-8) was more than 10000 nM. Also, the 50% cytotoxic concentration (CC50) in the series with HepAD38 cells is more than 10000 nM. Moreover, the EC50 in the series with HBV DNA (setting [2]) was found to be 14.9 nM. Further, the 90% effect concentration (IC90) in the series on HBV DNA (setting [3]) was 430 nM. Besides, in the series with HBV DNA (quantitative PCR), the “inhibition” value is listed as “good HBV DNA replication inhibitory activity”.

`C=C1[C@H](CO)[C@@H](O)C[C@@H]1n1cnc2c(=O)[nH]c(N)nc21` [ETV, entecavir, reference compound] displayed a CC50 at 10 days in series [1] (CCK-8, 10 days) of more than 10000 nM. Also, in the series on HBV DNA (setting [4]), the EC50 was determined as 0.121 nM and the IC90 amounted to 21 nM.

`CC(C)NS(=O)(=O)c1cc2c(c(C(=O)Nc3ccc(F)c(Cl)c3)c1)OCCO2` [Compound 5k]: the CC50 at 10 days in series [1] (CCK-8) was more than 10000 nM. This compound returned a half-maximal cytotoxic concentration (CC50) in the series with HepAD38 cells of more than 10000 nM. Moreover, the EC50 in the series on HBV DNA (setting [2]) was 0.96 nM. For the same compound, the IC90 in the series on HBV DNA (setting [3]) amounted to 99 nM. Besides, the half-maximal inhibitory concentration (IC50) in the series with HBV DNA (Hepatitis B virus, HePAD38, quantitative PCR, read-out: IC50 (anti-HBV DNA replication activity)) was 0.96 nM. Further, the “inhibition” value with HBV DNA (quantitative PCR) was “good HBV DNA replication inhibitory activity”.

As usually defined, the CC50 is the concentration giving 50% cytotoxicity. High values mean lower toxicity to the cells, low ones greater toxicity to the cells. As a reminder, the EC50 is the midpoint of the concentration-response curve. Broadly, the IC90 is the concentration at which the effect reaches the 90% level. The term IC50 denotes the concentration that gives 50% inhibition.
